In brackets after ≈: the same amount, converted by molar mass.
How the values were obtained:
Assay type in all cases: cell-based, Clostridium difficile
[1] = test system: C. difficile ATCC 1801; assay: MIC and MBC, broth microdilution; settings: Clostridioides difficile, ATCC1801
Procedure: (§1) Antibacterial activity of Diiodohydroxyquinoline against a wide panel of Clostridium difficile strains. […] MIC50 and MIC90 are the minimum concentration of each agent that inhibited growth of 50% and 90% of the tested isolates, respectively. The minimum bactericidal concentration (MBC) of these drugs was tested by plating 5 μL from wells with no growth onto BHIS agar plates. The MBC was categorized as the lowest concentration that reduced bacterial growth by 99.9% MIC50 and MIC90 are the minimum concentration of each agent that inhibited the growth of 50% and 90% of the tested isolates, respectively. The minimum bactericidal concentration (MBC) of these drugs was tested by plating 5 μL from wells with no growth onto BHIS agar plates. The MBC was categorized as the lowest concentration that reduced bacterial growth by 99.9% [29-31].

[2] = test system: C. difficile ATCC 43255; assay: MIC and MBC, broth microdilution; settings: Clostridioides difficile, ATCC43255
Procedure: as §1

[3] = test system: C. difficile HM-745; assay: MIC and MBC, broth microdilution; settings: Clostridioides difficile, HM745
Procedure: as §1

[4] = test system: C. difficile I10; assay: MIC and MBC, broth microdilution; settings: Clostridioides difficile, I10
Procedure: as §1

[5] = test system: C. difficile I11; assay: MIC and MBC, broth microdilution; settings: Clostridioides difficile, I11
Procedure: as §1

[6] = test system: C. difficile I13; assay: MIC and MBC, broth microdilution; settings: Clostridioides difficile, I13
Procedure: as §1

[7] = test system: C. difficile I6; assay: MIC and MBC, broth microdilution; settings: Clostridioides difficile, I6
Procedure: as §1

[8] = test system: C. difficile I9; assay: MIC and MBC, broth microdilution; settings: Clostridioides difficile, I9
Procedure: as §1

[9] = test system: C. difficile NR-49278; assay: MIC and MBC, broth microdilution; settings: Clostridioides difficile, NR49278
Procedure: as §1

[10] = test system: C. difficile NR-49285; assay: MIC and MBC, broth microdilution; settings: Clostridioides difficile, NR49285
Procedure: as §1

[11] = test system: C. difficile NR-49288; assay: MIC and MBC, broth microdilution; settings: Clostridioides difficile, NR49288
Procedure: as §1

[12] = test system: C. difficile P15; assay: MIC and MBC, broth microdilution; settings: Clostridioides difficile, P15
Procedure: as §1

[13] = test system: C. difficile P19; assay: MIC and MBC, broth microdilution; settings: Clostridioides difficile, P19
Procedure: as §1

[14] = test system: C. difficile P20; assay: MIC and MBC, broth microdilution; settings: Clostridioides difficile, P20
Procedure: as §1

[15] = test system: C. difficile P30; assay: MIC and MBC, broth microdilution; settings: Clostridioides difficile, P30
Procedure: as §1

[16] = test system: C. difficile P3; assay: MIC and MBC, broth microdilution; settings: Clostridioides difficile, P3
Procedure: as §1

[17] = test system: C. difficile P5; assay: MIC and MBC, broth microdilution; settings: Clostridioides difficile, P5
Procedure: as §1

[18] = test system: C. difficile P6; assay: MIC and MBC, broth microdilution; settings: Clostridioides difficile, P6
Procedure: as §1

[19] = test system: C. difficile ATCC BAA-1870; assay: Time kill kinetics assay; settings: C. difficile ATCC BAA-1870, 5×MIC, 24 hours
Procedure: (§2) Time kill kinetics assay. In order to examine the killing kinetics of DIHQ, a time kill kinetics assay was performed against Clostridium difficile ATCC BAA 1870 and C. difficile NR-49277 as described previously. […] Aliquots were collected from each treatment after 0, 4, 6, 8, 12, and 24 hours of incubation at 37° C. and subsequently serially diluted and plated for viable CFU/mL determination.

[20] = test system: C. difficile NR-49277; assay: Time kill kinetics assay; settings: C. difficile NR-49277, 5×MIC, 24 hours
Procedure: as §2

[21] = test system: C. difficile ATCC 43255; assay: Toxin A and B production inhibition, ELISA; settings: C. difficile ATCC 43255, ¼×MIC and ½×MIC
Procedure: (§3) To investigate DIHQs toxin production inhibitory activity, toxin A and toxin B levels were measured as described previously. […] An aliquot from each tube was diluted and plated on BHIS agar plates and incubated anaerobically at 37° C. for 24 hours to detect the bacterial count. The total concentration of C. difficile toxin A and B was measured in the supernatant of each tube using enzyme linked immunosorbent assay (ELISA) kit (tgc BIOMICS, Dunwoody, GA) following the manufacturer's instructions. The (OD450-OD620) values, corresponding to the toxin concentration, were measured for DIHQ and control drugs.

[22] = test system: C. difficile ATCC BAA-1870; assay: Toxin A and B production inhibition, ELISA; settings: C. difficile ATCC BAA-1870, ¼×MIC and ½×MIC
Procedure: as §3

[23] = test system: C. difficile NR-49277; assay: Toxin A and B production inhibition, ELISA; settings: C. difficile NR-49277, ¼×MIC and ½×MIC
Procedure: as §3

CN[C@H](CC(C)C)C(=O)N[C@H]1C(=O)N[C@@H](CC(N)=O)C(=O)N[C@H]2C(=O)N[C@H]3C(=O)N[C@H](C(=O)N[C@H](C(=O)O)c4cc(O)cc(O)c4-c4cc3ccc4O)[C@H](O)c3ccc(c(Cl)c3)Oc3cc2cc(c3O[C@@H]2O[C@H](CO)[C@@H](O)[C@H](O)[C@H]2O[C@H]2C[C@](C)(N)[C@H](O)[C@H](C)O2)Oc2ccc(cc2Cl)[C@H]1O [Vancomycin, vancomycin]
MBC [1]: 1 µg/mL (≈ 0.69 µM) | MIC [1]: 1 µg/mL (≈ 0.69 µM) | MBC [2]: 1 µg/mL (≈ 0.69 µM) | MIC [2]: 1 µg/mL (≈ 0.69 µM) | MBC [3]: 1 µg/mL (≈ 0.69 µM) | MIC [3]: 1 µg/mL (≈ 0.69 µM) | MBC [4]: 1 µg/mL (≈ 0.69 µM) | MIC [4]: 0.5 µg/mL (≈ 0.345 µM) | MBC [5]: 1 µg/mL (≈ 0.69 µM) | MIC [5]: 1 µg/mL (≈ 0.69 µM) | MBC [6]: 1 µg/mL (≈ 0.69 µM) | MIC [6]: 1 µg/mL (≈ 0.69 µM) | MBC [7]: 0.5 µg/mL (≈ 0.345 µM) | MIC [7]: 0.5 µg/mL (≈ 0.345 µM) | MBC [8]: 0.5 µg/mL (≈ 0.345 µM) | MIC [8]: 0.5 µg/mL (≈ 0.345 µM) | MBC [9]: 0.5 µg/mL (≈ 0.345 µM) | MIC [9]: 0.25 µg/mL (≈ 0.173 µM) | MBC [10]: 0.5 µg/mL (≈ 0.345 µM) | MIC [10]: 0.5 µg/mL (≈ 0.345 µM) | MBC [11]: 1 µg/mL (≈ 0.69 µM) | MIC [11]: 0.5 µg/mL (≈ 0.345 µM) | MBC [12]: 1 µg/mL (≈ 0.69 µM) | MIC [12]: 1 µg/mL (≈ 0.69 µM) | MBC [13]: 1 µg/mL (≈ 0.69 µM) | MIC [13]: 1 µg/mL (≈ 0.69 µM) | MBC [14]: 1 µg/mL (≈ 0.69 µM) | MIC [14]: 1 µg/mL (≈ 0.69 µM) | MBC [15]: 0.5 µg/mL (≈ 0.345 µM) | MIC [15]: 0.5 µg/mL (≈ 0.345 µM) | MBC [16]: 1 µg/mL (≈ 0.69 µM) | MIC [16]: 1 µg/mL (≈ 0.69 µM) | MBC [17]: 0.5 µg/mL (≈ 0.345 µM) | MIC [17]: 0.5 µg/mL (≈ 0.345 µM) | MBC [18]: 1 µg/mL (≈ 0.69 µM) | MIC [18]: 1 µg/mL (≈ 0.69 µM) | reduction of bacterial burden within 24 hours [19]: 1.7 log10 CFU/mL | reduction of bacterial burden within 24 hours [20]: 1.22 log10 CFU/mL | toxin inhibition (in words) [21]: No toxin inhibition | toxin inhibition (in words) [22]: No toxin inhibition | toxin inhibition (in words) [23]: No toxin inhibition
